The subject of series [1] is IL-1β. The series can be described thus: THP-1 AlphaLISA IL-1β cytokine assay (PMA-differentiated THP-1, LPS then nigericin). The note with it: Homo sapiens, 30 min pre-incubation, LPS 24 hr, nigericin 1 hour. It counts as cell-based. The method, then:
(§1) Measuring Inhibitory Effects on IL-1β, and IL-6 Cytokine Output from THP-1s
(§2) The cytokine inhibition profiles of compounds of formula (I) were determined in a differentiated THP-1 cell assay. All assays were performed in RPMI-1640 growth medium (Gibco), supplemented with 10% fetal bovine serum (FBS; Gibco), 1% penicillin-streptomycin and 1% sodium pyruvate unless specified otherwise. The IL-1β and IL-6 cytokine inhibition assays were each run in a background of differentiated THP-1 cells as described below. All reagents described were from Sigma-Aldrich unless specified otherwise. Compounds were prepared as 10 mM DMSO stocks.
(§3) THP-1 cells were expanded as a suspension up to 80% confluence in appropriate growth medium. Cells were harvested, suspended, and treated with an appropriate concentration of phorbol 12-myristate 13-acetate (PMA) over a 72 hr period (37° C./5% CO2).
(§4) Following 72 hrs of THP-1 cell incubation, cellular medium was removed and replaced with fresh growth media containing 1% of FBS. Working concentrations of compounds were prepared separately in 10% FBS treated growth medium and pre-incubated with the cells for 30 minutes (37° C./5% CO2). Following the 30 minute compound pre-incubation, THP-1s were treated with an appropriate concentration of LPS and the THP-1s were subsequently incubated for a 24 hr period (37° C./5% CO2). An appropriate final concentration of Nigericin was then dispensed into the THP-1 plates and incubated for 1 hour (37° C./5% CO2) before THP-1 supernatants were harvested and collected in separate polypropylene 96-well holding plates.
(§5) Reagents from each of the IL-1β and IL-6 commercial kits (Perkin Elmer) were prepared and run according to the manufacturer's instructions. Subsequently, fluorescence signal detection in a microplate reader was measured (EnVision® Multilabel Reader, Perkin Elmer).
(§6) Percentage inhibition was calculated per cytokine by normalizing the sample data to the high and low controls used within each plate (+/−LPS respectively).
(In general: In Alpha technology, singlet oxygen from a donor bead excites a nearby acceptor bead.)

For series [2], the system named is IL-6. The series can be described thus: THP-1 AlphaLISA IL-6 cytokine assay (PMA-differentiated THP-1, LPS then nigericin). It counts as cell-based. The settings on record: Homo sapiens; differentiated THP-1 cells; 30 min pre-incubation, LPS 24 hr, nigericin 1 hour. As for the experimental part:
as §1, §2, §3, §4, §5, §6

In series [3] the test system is NRF2. Briefly: NRF2 activation assay (DiscoverX PathHunter NRF2 translocation kit, U2OS cells). It counts as cell-based. The note with it: Homo sapiens; for Emax: U2OS, normalised to dimethyl fumarate high control; for EC50: U2OS PathHunter cells, 6 hours.
Series [4] is described as follows: Hepatocyte stability assay, human. It counts as in vitro ADME. The note with it: 10 μM compound, 0.5×10^6 cells/mL, 60 min; for CIint: Human hepatocytes; for half-life at 10 μM: cryo-preserved hepatocytes, read-out: T½. The source says: (§7) Defrosted cryo-preserved hepatocytes (viability >70%) were used to determine the metabolic stability of a compound via calculation of intrinsic clearance (CIint; a measure of the removal of a compound from the liver in the absence of blood flow and cell binding). Clearance data are particularly important for in vitro work as they can be used in combination with in vivo data to predict the half-life and oral bioavailability of a drug.
(§8) The metabolic stability in hepatocytes assay involved a time-dependent reaction using both positive and negative controls. The cells must be pre-incubated at 37° C. then spiked with test compound (and positive control); samples taken at pre-determined time intervals were analysed to monitor the change in concentration of the initial drug compound over 60 minutes. A buffer incubation reaction (with no hepatocytes present) acted as a negative control and two cocktail solutions, containing compounds with known high and low clearance values (verapamil/7-hydroxycoumarin and propranolol/diltiazem), acted as positive controls. • 1. The assay was run with a cell concentration of 0.5×10^6 cells/mL in Leibovitz buffer. • 2. All compounds and controls were run in duplicate. • 3. Compound concentration was 10 μM. • 4. All compounds and controls were incubated with both cells and buffer to show turnover is due to hepatic metabolism. • 5. All wells on the incubation plate had 326.7 μL of either cells or buffer added. • 6. Prior to assay, cell and buffer-only incubation plates were preincubated for 10 mins at 37° C. • 7. The assay was initiated by adding compounds, 3.3 μL of 1 mM in 10% DMSO-90% Buffer; final DMSO concentration is 0.1%. • 8. Samples were taken at regular timepoints (0, 5, 10, 20, 40, 60 min) until 60 mins. • 9. Sample volume was 40 μL and added to 160 μL of crash solvent (acetonitrile with internal standard) and stored on ice. • 10. At the end of the assay, the crash plates were centrifuged at 3500 rpm for 20 mins at 4° C. • 11. 80 μL of clear supernatant was removed and mixed with 80 μL of deionised water before being analysed by LC-MS/MS.
(§9) Raw LC-MS/MS data were exported to, and analysed in, Microsoft Excel for determination of intrinsic clearance. The percentage remaining of a compound was monitored using the peak area of the initial concentration as 100%. Intrinsic clearance and half-life values were calculated using a graph of the natural log of percentage remaining versus the time of reaction in minutes.

The nature of series [5]: Hepatocyte stability assay, mouse. The note with it: 10 μM compound, 0.5×10^6 cells/mL, 60 min; for CIint: Mouse hepatocytes; for half-life at 10 μM: cryo-preserved hepatocytes, read-out: T½. It counts as in vitro ADME.
Excerpt: as §7, §8, §9

SMILES strings stand for the structures. Where only a bound is given, the exact number is not on record here.

Regarding `C=C(CC(=O)OCC(=O)O)C(=O)OC1(c2ccc(C(F)(F)F)cc2)CCC1` [Example 22, 2-((3-((1-(4-(trifluoromethyl)phenyl)cyclobutoxy)carbonyl)but-3-enoyl)oxy)acetic acid], the IC50 (as a rule, the midpoint of a concentration-inhibition curve) was 15.2 µM in series [1] (differentiated THP-1 cells) and greater than 31.6 µM in series [2]. The figures for the Emax in series [3] (+GSH) and in series [3] (−GSH) were 45% and 100%, respectively. The half-maximal effective concentration (EC50) – broadly, the concentration giving half of the maximal effect – in series [3] (+GSH) was 41.1 µM; in series [3] (−GSH), 40 µM. In addition, the CIint in series [4] is 7 μL min^−1 10^−6 cells; in series [5] it was 392 μL min^−1 10^−6 cells. Besides, the half-life at 10 μM in series [4] amounted to 3.4 h; in series [5] it was 0.0667 h.
On to `C/C(=C\C(=O)O)C(=O)OC1(c2ccc(C(F)(F)F)cc2)CCC1` [Example 23, 3-methyl-4-oxo-4-(1-(4-(trifluoromethyl)phenyl)cyclobutoxy)but-2-enoic acid], for which the IC50 in series [1] (THP-1, differentiated THP-1 cells) was 4 µM; in series [2] it was greater than 100 µM. For the same molecule, the Emax (as a rule, the greatest response seen or fitted, relative to the assay's reference) in series [3] (+GSH) was 4%; in series [3] (−GSH), 39%. Moreover, the EC50 is greater than 100 µM in series [3] (+GSH) and 2.8 µM in series [3] (−GSH). Further, the CIint in series [4] and in series [5] was less than 3 μL min^−1 10^−6 cells in each case. In addition, the half-life at 10 μM in series [4] and in series [5] was greater than 7.67 h in each case.

The record behind these values is US20240360067A1, “DERIVATIVES OF ITACONIC ACID AND THEIR USE AS ANTI-INFLAMMATORY AGENTS” (Sitryx Therapeutics Limited, priority 2021, published 2024).
